Measurements: ChEMBL document CHEMBL4052649, “Structure-activity relationships for flavone interactions with amyloid β reveal a novel anti-aggregatory and neuroprotective effect of 2',3',4'-trihydroxyflavone (2-D08)” (Bioorg Med Chem, 2017)
Active and inactive are the calls of the source. The calls are words filed in the database; no cut-off is given here.

Columns and labels:
[1] = target: Amyloid-beta precursor protein (Homo sapiens) (UniProt P05067); assay: Inhibition of human amyloid beta (1 to 42) fibrillisation in cell-free solution at 100 uM measured every 10 mins up to 48 hrs by Thioflavin T based fluorescence assay
Sequence of Amyloid-beta precursor protein (Homo sapiens) (P05067 whole entry): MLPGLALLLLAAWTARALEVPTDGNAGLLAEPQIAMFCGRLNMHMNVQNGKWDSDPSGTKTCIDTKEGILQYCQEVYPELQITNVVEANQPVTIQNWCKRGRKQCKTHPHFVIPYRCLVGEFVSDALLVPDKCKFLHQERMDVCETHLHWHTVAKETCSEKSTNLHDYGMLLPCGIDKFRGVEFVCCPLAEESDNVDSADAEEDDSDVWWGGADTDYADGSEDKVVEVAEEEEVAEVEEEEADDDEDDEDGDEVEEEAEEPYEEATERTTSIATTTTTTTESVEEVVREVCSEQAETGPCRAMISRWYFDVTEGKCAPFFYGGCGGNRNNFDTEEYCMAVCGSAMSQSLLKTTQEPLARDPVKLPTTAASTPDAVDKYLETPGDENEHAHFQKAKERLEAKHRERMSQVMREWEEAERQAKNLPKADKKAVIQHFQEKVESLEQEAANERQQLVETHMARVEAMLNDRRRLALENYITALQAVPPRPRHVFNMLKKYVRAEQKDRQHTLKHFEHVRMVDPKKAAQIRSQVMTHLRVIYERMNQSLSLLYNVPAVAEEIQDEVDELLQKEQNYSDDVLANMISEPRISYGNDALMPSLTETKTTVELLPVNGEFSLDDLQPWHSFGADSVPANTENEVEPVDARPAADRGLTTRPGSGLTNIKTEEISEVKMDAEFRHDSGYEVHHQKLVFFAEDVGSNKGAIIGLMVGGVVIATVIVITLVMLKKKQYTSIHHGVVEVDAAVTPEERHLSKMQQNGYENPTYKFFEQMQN

[2] = target: Amyloid-beta precursor protein (Homo sapiens) (UniProt P05067); assay: Inhibition of human amyloid beta (1 to 42) assessed as neuroprotective activity at 2 uM of amyloid beta (1 to 42)-induced toxicity in rat PC12 cells by measuring reduction in cell viability at 100 uM incubated 15 mins prior to amyloid beta (1 to 42) addition measured after 48 hrs by MTT assay; type: cell-based
[3] = target: Amyloid-beta precursor protein (Homo sapiens) (UniProt P05067); assay: Inhibition of human amyloid beta (1 to 42) aggregation assessed as loosely attached/thin fibrils at 100 uM after 48 hrs by transmission electron microscopic analysis
[4] = target: Amyloid-beta precursor protein (Homo sapiens) (UniProt P05067); assay: Inhibition of human amyloid beta (1 to 42) assessed as neuroprotective activity at 2 uM of amyloid beta (1 to 42)-induced toxicity in rat PC12 cells by measuring reduction in cell viability at 10 to 50 uM incubated 15 mins prior to amyloid beta (1 to 42) addition measured after 48 hrs by MTT assay; type: cell-based
[5] = target: Amyloid-beta precursor protein (Homo sapiens) (UniProt P05067); assay: Inhibition of human amyloid beta (1 to 42) assessed as reduction in fibrillisation AUC in cell-free solution at 100 uM measured every 10 mins for 48 hrs by Thioflavin T based fluorescence assay
[6] = target: Amyloid-beta precursor protein (Homo sapiens) (UniProt P05067); assay: Inhibition of human amyloid beta (1 to 42) assessed as neuroprotective activity up to 2 uM of amyloid beta (1 to 42)-induced toxicity in rat PC12 cells by measuring reduction in cell viability at 100 uM incubated 15 mins prior to amyloid beta (1 to 42) addition measured after 48 hrs by MTT assay; type: cell-based
[7] = target: Amyloid-beta precursor protein (Homo sapiens) (UniProt P05067); assay: Inhibition of human amyloid beta (1 to 42) assessed as neuroprotective activity at 2 uM of amyloid beta (1 to 42)-induced toxicity in rat PC12 cells by measuring reduction in cell viability incubated 15 mins prior to amyloid beta (1 to 42) addition measured after 48 hrs by MTT assay; type: cell-based
[8] = target: Amyloid-beta precursor protein (Homo sapiens) (UniProt P05067); assay: Inhibition of human amyloid beta (1 to 42) aggregation at 100 uM after 48 hrs by transmission electron microscopic analysis
[9] = target: Amyloid-beta precursor protein (Homo sapiens) (UniProt P05067); assay: Inhibition of human amyloid beta (1 to 42) aggregation assessed as reduction in fibril formation at 100 uM after 48 hrs by transmission electron microscopic analysis
[10] = target: Amyloid-beta precursor protein (Homo sapiens) (UniProt P05067); assay: Inhibition of human amyloid beta (1 to 42) assessed as neuroprotective activity up to 1 uM of amyloid beta (1 to 42)-induced toxicity in rat PC12 cells by measuring reduction in cell viability at 100 uM incubated 15 mins prior to amyloid beta (1 to 42) addition measured after 48 hrs by MTT assay; type: cell-based
PC-12 [11] = assay: Cytotoxicity against rat PC12 cells assessed as reduction in cell viability at 100 uM after 48 hrs in presence of 0.1 uM amyloid beta (1 to 42) by MTT assay; type: cell-based; details: pc-12, 48 h
[12] = target: Amyloid-beta precursor protein (Homo sapiens) (UniProt P05067); assay: Inhibition of human amyloid beta (1 to 42) fibrillisation in cell-free solution at 100 uM measured up to 16 hrs by Thioflavin T based fluorescence assay
[13] = target: Amyloid-beta precursor protein (Homo sapiens) (UniProt P05067); assay: Inhibition of human amyloid beta (1 to 42) aggregation assessed as increase in preponderance of fibril meshwork formation at 100 uM after 48 hrs by transmission electron microscopic analysis
PC-12 [14] = assay: Cytotoxicity against rat PC12 cells assessed as reduction in cell viability at 100 uM after 48 hrs in presence of up to 2 uM amyloid beta (1 to 42) by MTT assay; type: cell-based; details: pc-12, 48 h
[15] = target: Amyloid-beta precursor protein (Homo sapiens) (UniProt P05067); assay: Inhibition of human amyloid beta (1 to 42) assessed as neuroprotective activity against amyloid beta (1 to 42)-induced toxicity in rat PC12 cells by measuring reduction in cell viability at 10 uM incubated 15 mins prior to amyloid beta (1 to 42) addition measured after 48 hrs by MTT assay; type: cell-based
[16] = target: Amyloid-beta precursor protein (Homo sapiens) (UniProt P05067); assay: Inhibition of human amyloid beta (1 to 42) assessed as neuroprotective activity against amyloid beta (1 to 42)-induced toxicity in rat PC12 cells by measuring reduction in cell viability at 50 to 100 uM incubated 15 mins prior to amyloid beta (1 to 42) addition measured after 48 hrs by MTT assay; type: cell-based
PC-12 [17] = assay: Cytotoxicity against rat PC12 cells assessed as reduction in cell viability at 100 uM after 48 hrs by MTT assay; type: cell-based; details: pc-12, 48 h

SMILES | inhibition [1] | inhibition [2] | inhibition [3] | inhibition [4] | inhibition [5] | inhibition [6] | inhibition [7] | inhibition [8] | inhibition [9] | inhibition [10] | Activity (PC-12 [11]) | inhibition [12] | inhibition [13] | Activity (PC-12 [14]) | inhibition [15] | inhibition [16] | Activity (PC-12 [17]) [%]
COc1c(-c2ccc(O)c(O)c2)oc2c(O)c(O)ccc2c1=O | Active | inactive | Active | Active | Active | Active |  |  |  |  |  |  |  |  |  |  | 
O=c1cc(-c2ccc(O)c(O)c2O)oc2ccccc12 | Active |  |  |  | Active | Active | Dose-dependent effect | Active | Active |  |  |  |  |  |  |  | 
COc1cc(-c2cc(=O)c3c(O)c(OC)c(O)cc3o2)ccc1O [JACEOSIDINE] |  |  |  |  | inactive |  |  | Active |  | inactive | Toxic | Active |  |  |  |  | 
COc1ccc(-c2cc(=O)c3c(OC)c(OC)c(OC)c(OC)c3o2)cc1OC [NOBILETIN] |  |  |  |  | inactive |  |  |  |  | inactive | Toxic | inactive | inactive |  |  |  | 
O=c1c(O)c(-c2ccc(O)c(O)c2)oc2cc(O)cc(O)c12 [QUERCETIN] | Active |  | Active |  | Active | inactive |  |  |  |  |  |  |  | Non-Toxic | Active | inactive | 25
